Assay results reported in the supplement of paper PMC10307832.

Legend:
Test in all cases: relative viability (nuclei count vs DMSO), 5 days (fraction); higher = more cells survive
Afatinib + Navitoclax = compound: CN(C)C/C=C/C(=O)Nc1cc2c(Nc3ccc(F)c(Cl)c3)ncnc2cc1O[C@H]1CCOC1 [Afatinib] + CC1(C)CCC(c2ccc(Cl)cc2)=C(CN2CCN(c3ccc(C(=O)NS(=O)(=O)c4ccc(N[C@H](CCN5CCOCC5)CSc5ccccc5)c(S(=O)(=O)C(F)(F)F)c4)cc3)CC2)C1 [Navitoclax] (partner 0.5 µM)
How it was run: (§1)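 Cells from lung cancer lines were seeded into 1536-well plates and, one day later, dosed by pin tool. Treatments were either a single drug or a fixed dose of an anchor drug with five library-drug doses (not always all listed) in √10 steps. After 5 days, nuclei were stained in a one-step fixation (final 0.05% Triton X-100, 1% formaldehyde, 1 ug/ml Hoechst) and counted on 4× images, and relative viability is the treated-to-vehicle nuclei ratio, as the median of duplicate plates.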

Afatinib + Crizotinib = compound: CN(C)C/C=C/C(=O)Nc1cc2c(Nc3ccc(F)c(Cl)c3)ncnc2cc1O[C@H]1CCOC1 [Afatinib] + C[C@@H](Oc1cc(-c2cnn(C3CCNCC3)c2)cnc1N)c1c(Cl)ccc(F)c1Cl [Crizotinib] (partner 1 µM)
How it was run: as §1

Afatinib + Tozasertib = compound: CN(C)C/C=C/C(=O)Nc1cc2c(Nc3ccc(F)c(Cl)c3)ncnc2cc1O[C@H]1CCOC1 [Afatinib] + Cc1cc(Nc2cc(N3CCN(C)CC3)nc(Sc3ccc(NC(=O)C4CC4)cc3)n2)n[nH]1 [Tozasertib] (partner 0.1 µM)
How it was run: as §1

Afatinib + Vorinostat = compound: CN(C)C/C=C/C(=O)Nc1cc2c(Nc3ccc(F)c(Cl)c3)ncnc2cc1O[C@H]1CCOC1 [Afatinib] + O=C(CCCCCCC(=O)Nc1ccccc1)NO [Vorinostat] (partner 1 µM)
How it was run: as §1

Cell Line	relative viability (Afatinib + Navitoclax; first compound 0.005 µM)	relative viability (Afatinib + Navitoclax; first compound 0.01581 µM)	relative viability (Afatinib + Navitoclax; first compound 0.05 µM)	relative viability (Afatinib + Navitoclax; first compound 0.1581 µM)	relative viability (Afatinib + Navitoclax; first compound 0.5 µM)	relative viability (Afatinib + Crizotinib; first compound 0.005 µM)	relative viability (Afatinib + Crizotinib; first compound 0.01581 µM)	relative viability (Afatinib + Crizotinib; first compound 0.05 µM)	relative viability (Afatinib + Crizotinib; first compound 0.1581 µM)	relative viability (Afatinib + Crizotinib; first compound 0.5 µM)	relative viability (Afatinib + Tozasertib; first compound 0.005 µM)	relative viability (Afatinib + Tozasertib; first compound 0.01581 µM)	relative viability (Afatinib + Tozasertib; first compound 0.05 µM)	relative viability (Afatinib + Tozasertib; first compound 0.1581 µM)	relative viability (Afatinib + Tozasertib; first compound 0.5 µM)	relative viability (Afatinib + Vorinostat; first compound 0.005 µM)	relative viability (Afatinib + Vorinostat; first compound 0.01581 µM)	relative viability (Afatinib + Vorinostat; first compound 0.05 µM)	relative viability (Afatinib + Vorinostat; first compound 0.1581 µM)	relative viability (Afatinib + Vorinostat; first compound 0.5 µM)
NCI-H3122	1.02	0.976	1.05	0.91	1.03	0.257	0.212	0.208	0.209	0.299	0.452	0.504	0.394	0.327	0.459	1.1	1	1.06	0.956	0.944
NCI-H1651	1.18	0.989	1.08	0.949	0.941	0.911	0.85	0.817	0.855	0.82	0.718	0.748	0.727	0.591	0.609	0.628	0.521	0.512	0.575	0.539
NCI-H838	1.12	1.14	1.27	1.2	1.16	0.782	0.87	0.901	0.791	0.937	0.29	0.264	0.282	0.222	0.276	0.695	0.74	0.74	0.639	0.801
NCI-H596	1.01	0.94	1.03	0.815	0.934	0.987	0.866	0.94	0.904	0.921	0.848	0.881	0.92	0.777	0.772	0.706	0.541	0.571	0.745	0.62
SK-LU-1	0.98	0.719	0.757	0.861	0.842	1.07	0.731	0.879	1.12	0.842	0.332	0.32	0.355	0.322	0.277	0.727	0.806	0.767	0.771	0.738
NCI-H441	0.904	0.516	0.446	0.399	0.294	0.691	0.789	0.85	0.841	0.652	0.757	0.788	0.67	0.532	0.494	0.791	0.94	0.737	0.878	0.698
SK-MES-1	1.16	0.965	0.655	0.731	0.556	0.977	0.879	0.626	0.485	0.466	0.928	0.897	0.723	0.613	0.532	0.542	0.816	0.509	0.54	0.506
NCI-H1355	0.807	1.02	0.823	0.764	0.792	1.16	0.983	1.01	0.792	0.816	0.577	0.517	0.522	0.501	0.464	0.597	0.585	0.545	0.553	0.552
SW 1573	0.878	1.08	1.13	0.819	0.943	0.963	0.885	1.01	0.683	0.75	0.16	0.175	0.202	0.158	0.171	0.696	0.682	1.01	0.692	0.777
NCI-H2347	0.932	0.79	0.873	0.903	0.804	0.828	0.937	0.657	0.607	0.724	0.509	0.593	0.596	0.484	0.603	0.628	0.73	0.587	0.524	0.565
LCLC-97TM1	0.383	0.546	0.411	0.344	0.455	0.491	0.337	0.329	0.242	0.308	0.248	0.247	0.159	0.268	0.179	0.793	0.784	0.861	0.628	0.646
EMC-BAC-2	1.09	1.1	1.02	0.895	0.906	0.816	0.731	0.698	0.693	0.654	0.315	0.299	0.342	0.326	0.309	0.558	0.236	0.596	0.465	0.438
NCI-H1975	1.19	1.14	1.24	0.488	0.624	1.14	1.07	1.01	0.45	0.307	0.7	0.702	0.641	0.268	0.218	0.711	0.667	0.59	0.357	0.26
BEN	0.0693	0.0755	0.16	0.0734	0.0635	0.929	0.941	1.02	0.908	0.916	0.461	0.512	0.57	0.475	0.494	0.588	0.564	0.559	0.557	0.574
NCI-H23	0.973	0.843	0.881	0.735	0.814	0.516	0.459	0.612	0.44	0.639	0.356	0.366	0.321	0.391	0.315	0.787	0.589	0.615	0.619	0.591
NCI-H520	1.21	1.15	1.02	1.1	1.11	1.33	0.851	0.832	0.749	0.737	0.435	0.355	0.462	0.342	0.422	0.807	0.707	0.639	0.698	0.717
